Experimental data taken from patent US10358434B2, “2-(3-pyridinyl)-1H-benzimidazole derivative compound and medicament containing same” (NIHON MEDI-PHYSICS CO., LTD., priority 2014, dated 2019).

Key:
[1] = system: human adrenal gland section expressing aldosterone-producing adenoma; assay: In vitro autoradiography using human adrenal adenoma; type: binding
Description: From adrenal gland excised from a human patient for treatment of primary aldosteronism, a portion containing aldosterone-producing adenoma was removed and was then frozen. The frozen adrenal gland was embedded in an embedding agent for production of a frozen tissue section (Tissue-Tek O.C.T. Compound, Sakura Finetek Japan). Using a freezing microtome (CM3050S, Leica Microsystems), a 7-μm thin slice section, which is schematically shown in FIGS. 17(a) and 17(b), was produced, and was preserved at −20° C. before use. In FIGS. 17, 71a and 71b indicate aldosterone-producing adenomas, 72a and 72b indicate normal adrenal cortexes, and 73a and 73b indicate normal adrenal medullas. A 5-33 kBq/mL solution was prepared by adding a suitable amount of each of Compounds [^18F] 100, [^18F] 200, [^123I] 400, [^18F] 500, and [^123I] 601 to [^123I] 610, which were obtained by the methods described in Examples 2, 4, 7, 9, 11, 13, 15, 17, 19, 21, 23, 25, 27, and 29, or [^123I] IMTO to a phosphate-buffered physiological saline containing 1 w/v % bovine serum albumin (not containing fatty acid). The radioactivity concentration was measured using an autowell gamma system (ARC-7001, manufactured by Hitachi Aloka Medical, Ltd.). The section was immersed in the obtained sample solution for 10 minutes. For Compounds [^18F] 100, [^18F] 200, [^123I] 400, [^18F] 500, [^123I] 601 and [^123I] 602, the section shown in FIG. 17(a) was used, and for Compounds […] [^123I] IMTO, both sections shown in FIGS. 17(a) and (b) were used. Each sample solution was washed off, and the section was then exposed to an imaging plate (BAS-SR2040, manufactured by FUJIFILM Holdings Corporation) (IP) for 16-20 hours, and thereafter, an autoradiogram was obtained using a fluoro-image analyzer (FLA-7000, manufactured by FUJIFILM Holdings Corporation).
In order to quantitatively compare differences between images caused by ^123I and ^18F nuclides, a correction was made by calculating accumulation of radioactivity within the range of a region of interest (ROI) by means of integral calculation based on half-life, added radioactivity and IP contact time.
610. FIG. 18(b), FIG. 19(b), FIG. 20(b), FIG. 21(b), FIG. 22(a), FIG. 23(a), FIG. 24(a), FIG. 25(a), FIG. 26(a), FIG. 27(a), FIG. 28(a), FIG. 29(a), FIG. 30(a), and FIG. 31(a) each show an autoradiogram of [^123I] IMTO. […] 100, [^18F] 200, [^123I] 400, [^18F] 500, and [^123I] 601 to [^123I] […] The ROI having the same area as each other was established in a normal site and in a site in which aldosterone-producing adenoma had developed. Then, the PSL value (B1) indicating accumulation of radioactivity in the sites of normal adrenal cortexes 72a and 72b was compared with the PSL value (B2) indicating accumulation of radioactivity in the sites of aldosterone-producing adenomas 71a and 71b. In Table 7, the B1, B2 and B2/B1 values of [^18F] 100 indicate the mean values for the number of tests (n), respectively.

[2] = Plasma stability evaluation (TLC analysis); type: in vitro ADME; details: 37° C., 60 minutes
Procedure: Evaluation was made using a heparin-treated normal human plasma pool (Kohjin Bio Co., Ltd.). Compounds [^18F] 100, [^18F] 200, [^123I] 400, [^18F] 500, and [^123I] 601 to 610 obtained by the methods shown in Examples 2, 4, 7, 9, 11, 13, 15, 17, 19, 21, 23, 25, 27, and 29 were each added to the aforementioned human plasma (5 mL), and the obtained mixture was then incubated at 37° C. for 60 minutes. Thereafter, the mixture was centrifuged with addition of methanol, so that a deproteinization treatment was carried out. Thereafter, stability was evaluated by TLC analysis. As TLC analysis conditions, the TLC analysis conditions applied upon the above described synthesis of each compound were applied.

[3] = In vivo kinetics experiment (radioactivity distribution); design: species or system Wistar male rat; details: rat; for Adrenal gland/blood ratio of radioactivity accumulation / Adrenal gland/fat ratio of radioactivity accumulation / Adrenal gland/kidney ratio of radioactivity accumulation / Adrenal gland/liver ratio of radioactivity accumulation / Adrenal gland/muscle ratio of radioactivity accumulation / Adrenal gland/small intestine ratio of radioactivity accumulation / Radioactivity distribution Adrenal gland / Radioactivity distribution Bladder (including urine) / Radioactivity distribution Blood / Radioactivity distribution Fat / Radioactivity distribution Femur / Radioactivity distribution Heart / Radioactivity distribution Kidney / Radioactivity distribution Large intestine / Radioactivity distribution Liver / Radioactivity distribution Lung / Radioactivity distribution Muscle (lower limbs) / Radioactivity distribution Remaining whole body / Radioactivity distribution Small intestine / Radioactivity distribution Spleen / Radioactivity distribution Stomach / Radioactivity distribution Testis / Radioactivity distribution Whole brain: caudal vein
Procedure: Each of Compounds [^18F] 100, [^18F] 200, [^123I] 400, [^18F] 500, and [^123I] 601 to 610 obtained by the methods described in Examples 2, 4, 7, 9, 11, 13, 15, 17, 19, 21, 23, 25, 27, and 29, or [^123I] IMTO, was diluted with a physiological saline containing 1 w/v % ascorbic acid to prepare a solution to be administered. The above described compound (approximately 1 to 3.7 MBq) was injected into the caudal vein of a Wistar male rat (9 weeks old) under anesthesia with a mixed gas of isoflurane/air, and ten minutes after the injection, the rat was sacrificed by exsanguination. From the thus sacrificed rat, blood and organs (heart, lung, stomach, liver, spleen, small intestine, large intestine, kidney, bladder (including urine), muscle (lower limbs), brain, adrenal gland, testis, fat, femur, or thyroid gland) were excised, and the weights thereof were then measured. Thereafter, radioactivity was measured in the blood, the individual excised organs, and the remaining whole body. Further, 30 and 60 minutes after the administration, the same operations as those described above were carried out. […] The symbol “n” in Tables 9 to 23 indicates the number of rats used. In addition, Tables 9 to 23 also show the ratio of radioactivity accumulation in adrenal grand (% ID/g) to radioactivity accumulation in each of blood, liver, kidney, small intestine, muscle and fat (% ID/g).

Structure (SMILES): Fc1cc2nc(-c3cncc(Cn4ccnc4)c3)n(CC[18F])c2cc1Cl [[^18F] 100, 6-Chloro-5-fluoro-1-(2-[^18F]fluoroethyl)-2-[5-(imidazol-1-ylmethyl)pyridin-3-yl]benzimidazole]
- accumulation of radioactivity in adrenal gland section (autoradiogram) ([1]; FIGS. 18 to 31): accumulation of radioactivity was selectively observed in a region in which aldosterone-producing adenoma had been pathologically observed
- B2/B1 accumulation ratio ([1]; section of FIG. 17(a)): 5.08
- B2 (PSL value, aldosterone-producing adenoma) ([1]; section of FIG. 17(a), site 71a): 16480
- B1 (PSL value, normal adrenal cortex) ([1]; section of FIG. 17(a), site 72a): 3241
- stability in human plasma [2]: hardly metabolized and decomposed in the plasma
- Radiochemical purity after incubation in human plasma ([2]; TLC analysis): 97%
- accumulation of radioactivity in adrenal gland vs blood and peripheral tissues ([3]; Tables 9 to 22): high accumulation of radioactivity in adrenal gland was observed, in comparison to in blood and peripheral tissues
- Adrenal gland/blood ratio of radioactivity accumulation ([3]; 10 min after administration): 137.96 ± 52.72
- Adrenal gland/fat ratio of radioactivity accumulation ([3]; 10 min after administration): 141.33 ± 57.27
- Adrenal gland/kidney ratio of radioactivity accumulation ([3]; 10 min after administration): 6.14 ± 2.01
- Adrenal gland/liver ratio of radioactivity accumulation ([3]; 10 min after administration): 1.93 ± 0.69
- Adrenal gland/muscle ratio of radioactivity accumulation ([3]; 10 min after administration): 63.25 ± 34.56
- Adrenal gland/small intestine ratio of radioactivity accumulation ([3]; 10 min after administration): 9.89 ± 2.73
- Radioactivity distribution Adrenal gland ([3]; 10 min after administration): 10.19 ± 3.35 % ID/g
- Radioactivity distribution Bladder (including urine) ([3]; 10 min after administration): 0.22 ± 0.08 % ID/g
- Radioactivity distribution Blood ([3]; 10 min after administration): 0.08 ± 0.01 % ID/g
- Radioactivity distribution Fat ([3]; 10 min after administration): 0.08 ± 0.02 % ID/g
- Radioactivity distribution Femur ([3]; 10 min after administration): 0.63 ± 0.08 % ID/g
- Radioactivity distribution Heart ([3]; 10 min after administration): 0.32 ± 0.08 % ID/g
- Radioactivity distribution Kidney ([3]; 10 min after administration): 1.70 ± 0.40 % ID/g
- Radioactivity distribution Large intestine ([3]; 10 min after administration): 0.15 ± 0.02 % ID/g
- Radioactivity distribution Liver ([3]; 10 min after administration): 5.39 ± 0.99 % ID/g
- Radioactivity distribution Lung ([3]; 10 min after administration): 0.63 ± 0.08 % ID/g
- Radioactivity distribution Muscle (lower limbs) ([3]; 10 min after administration): 0.23 ± 0.24 % ID/g
- Radioactivity distribution Remaining whole body ([3]; 10 min after administration): 0.22 ± 0.03 % ID/g
- Radioactivity distribution Small intestine ([3]; 10 min after administration): 1.03 ± 0.14 % ID/g
- Radioactivity distribution Spleen ([3]; 10 min after administration): 3.85 ± 0.65 % ID/g
- Radioactivity distribution Stomach ([3]; 10 min after administration): 0.56 ± 0.17 % ID/g
- Radioactivity distribution Testis ([3]; 10 min after administration): 0.05 ± 0.01 % ID/g
- Radioactivity distribution Whole brain ([3]; 10 min after administration): 0.01 ± 0.00 % ID/g
- Adrenal gland/blood ratio of radioactivity accumulation ([3]; 30 min after administration): 249.08 ± 51.81
- Adrenal gland/fat ratio of radioactivity accumulation ([3]; 30 min after administration): 352.33 ± 208.06
- Adrenal gland/kidney ratio of radioactivity accumulation ([3]; 30 min after administration): 18.18 ± 4.58
- Adrenal gland/liver ratio of radioactivity accumulation ([3]; 30 min after administration): 3.58 ± 0.82
- Adrenal gland/muscle ratio of radioactivity accumulation ([3]; 30 min after administration): 179.35 ± 63.77
- Adrenal gland/small intestine ratio of radioactivity accumulation ([3]; 30 min after administration): 11.12 ± 2.64
- Radioactivity distribution Adrenal gland ([3]; 30 min after administration): 19.61 ± 4.29 % ID/g
- Radioactivity distribution Bladder (including urine) ([3]; 30 min after administration): 1.17 ± 0.77 % ID/g
- Radioactivity distribution Blood ([3]; 30 min after administration): 0.08 ± 0.01 % ID/g
- Radioactivity distribution Fat ([3]; 30 min after administration): 0.07 ± 0.02 % ID/g
- Radioactivity distribution Femur ([3]; 30 min after administration): 0.71 ± 0.18 % ID/g
- Radioactivity distribution Heart ([3]; 30 min after administration): 0.27 ± 0.06 % ID/g
- Radioactivity distribution Kidney ([3]; 30 min after administration): 1.10 ± 0.16 % ID/g
- Radioactivity distribution Large intestine ([3]; 30 min after administration): 0.20 ± 0.02 % ID/g
- Radioactivity distribution Liver ([3]; 30 min after administration): 5.55 ± 0.80 % ID/g
- Radioactivity distribution Lung ([3]; 30 min after administration): 0.43 ± 0.07 % ID/g
- Radioactivity distribution Muscle (lower limbs) ([3]; 30 min after administration): 0.12 ± 0.03 % ID/g
- Radioactivity distribution Remaining whole body ([3]; 30 min after administration): 0.18 ± 0.03 % ID/g
- Radioactivity distribution Small intestine ([3]; 30 min after administration): 1.78 ± 0.21 % ID/g
- Radioactivity distribution Spleen ([3]; 30 min after administration): 4.57 ± 1.32 % ID/g
- Radioactivity distribution Stomach ([3]; 30 min after administration): 0.73 ± 0.11 % ID/g
- Radioactivity distribution Testis ([3]; 30 min after administration): 0.06 ± 0.01 % ID/g
- Radioactivity distribution Whole brain ([3]; 30 min after administration): 0.01 ± 0.00 % ID/g
- Adrenal gland/blood ratio of radioactivity accumulation ([3]; 60 min after administration): 247.32 ± 64.42
- Adrenal gland/fat ratio of radioactivity accumulation ([3]; 60 min after administration): 397.01 ± 160.35
- Adrenal gland/kidney ratio of radioactivity accumulation ([3]; 60 min after administration): 18.96 ± 4.83
- Adrenal gland/liver ratio of radioactivity accumulation ([3]; 60 min after administration): 5.20 ± 1.19
- Adrenal gland/muscle ratio of radioactivity accumulation ([3]; 60 min after administration): 236.89 ± 62.76
- Adrenal gland/small intestine ratio of radioactivity accumulation ([3]; 60 min after administration): 7.66 ± 2.34
- Radioactivity distribution Adrenal gland ([3]; 60 min after administration): 21.34 ± 5.24 % ID/g
- Radioactivity distribution Bladder (including urine) ([3]; 60 min after administration): 2.41 ± 0.97 % ID/g
- Radioactivity distribution Blood ([3]; 60 min after administration): 0.09 ± 0.01 % ID/g
- Radioactivity distribution Fat ([3]; 60 min after administration): 0.06 ± 0.03 % ID/g
- Radioactivity distribution Femur ([3]; 60 min after administration): 0.77 ± 0.13 % ID/g
- Radioactivity distribution Heart ([3]; 60 min after administration): 0.26 ± 0.03 % ID/g
- Radioactivity distribution Kidney ([3]; 60 min after administration): 1.13 ± 0.17 % ID/g
- Radioactivity distribution Large intestine ([3]; 60 min after administration): 0.38 ± 0.22 % ID/g
- Radioactivity distribution Liver ([3]; 60 min after administration): 4.11 ± 0.66 % ID/g
- Radioactivity distribution Lung ([3]; 60 min after administration): 0.45 ± 0.05 % ID/g
- Radioactivity distribution Muscle (lower limbs) ([3]; 60 min after administration): 0.09 ± 0.01 % ID/g
- Radioactivity distribution Remaining whole body ([3]; 60 min after administration): 0.18 ± 0.02 % ID/g
- Radioactivity distribution Small intestine ([3]; 60 min after administration): 2.85 ± 0.37 % ID/g
- Radioactivity distribution Spleen ([3]; 60 min after administration): 4.40 ± 1.15 % ID/g
- Radioactivity distribution Stomach ([3]; 60 min after administration): 1.02 ± 0.19 % ID/g
- Radioactivity distribution Testis ([3]; 60 min after administration): 0.08 ± 0.01 % ID/g
- Radioactivity distribution Whole brain ([3]; 60 min after administration): 0.02 ± 0.00 % ID/g
